Measured values taken from patent US20230365553A1, “COMPOUNDS AND COMPOSITIONS FOR TREATING CONDITIONS ASSOCIATED WITH STING ACTIVITY” (IFM Due, Inc., priority 2020, published 2023).

Biological target: T1, STING (Homo sapiens, UniProt Q86WV6, G230A/H232R/R293Q/R71H)
T1 construct: host or cells: THP1-Dual KO-IFNAR2 cells
Test: STING reporter assay: luciferase reporter activity in THP1-Dual KO-IFNAR2 cells stimulated with 2′3′cGAMP
Type: cell-based
Settings: 15 μM 2′3′cGAMP, 24h, read-out: hSTING EC50
Experimental: STING pathway activation by the compounds described herein was measured using THP 1-Dual™ cells (KO-IFNAR2).
THP1-Dual™ KO-IFNAR2 Cells (obtained from invivogen) were maintained in RPMI, 10% FCS, 5 ml P/S, 2 mM L-glut, 10 mM Hepes, and 1 mM sodium pyruvate. Compounds were spotted in empty 384 well tissue culture plates (Greiner 781182) by Echo for a final concentration of 0.0017-100 μM. Cells were plated into the TC plates at 40 μL per well, 2×10E6 cells/mL. For activation with STING ligand, 2′3′cGAMP (MW 718.38, obtained from Invivogen), was prepared in Optimem media.
The following solutions were prepared for each 1×384 plate: • Solution A: 2 mL Optimem with one of the following stimuli: • 60 μL of 10 mM 2′3′cGAMP→150 μM stock • Solution B: 2 mL Optimem with 60 μL Lipofectamine 2000→Incubate 5 min at RT
2 mL of solution A and 2 ml Solution B was mixed and incubated for 20 min at room temperature (RT). 20 μL of transfection solution (A+B) was added on top of the plated cells, with a final 2′3′cGAMP concentration of 15 μM. The plates were then centrifuged immediately at 340 g for 1 minute, after which they were incubated at 37° C., 5% CO2, >98% humidity for 24h. Luciferase reporter activity was then measured. EC50 values were calculated by using standard methods known in the art.
Luciferase reporter assay: 10 μL of supernatant from the assay was transferred to white 384-plate with flat bottom and squared wells. One pouch of QUANTI-Luc™ Plus was dissolved in 25 mL of water. 100 μL of QLC Stabilizer per 25 mL of QUANTI-Luc™ Plus solution was added. 50 μL of QUANTI-Luc™ Plus/QLC solution per well was then added. Luminescence was measured on a Platereader (e.g., Spectramax I3X (Molecular Devices GF3637001)).
Luciferase reporter activity was then measured. EC50 values were calculated by using standard methods known in the art.

T1 sequence (Q86WV6 whole entry R71H/G230A/H232R/R293Q): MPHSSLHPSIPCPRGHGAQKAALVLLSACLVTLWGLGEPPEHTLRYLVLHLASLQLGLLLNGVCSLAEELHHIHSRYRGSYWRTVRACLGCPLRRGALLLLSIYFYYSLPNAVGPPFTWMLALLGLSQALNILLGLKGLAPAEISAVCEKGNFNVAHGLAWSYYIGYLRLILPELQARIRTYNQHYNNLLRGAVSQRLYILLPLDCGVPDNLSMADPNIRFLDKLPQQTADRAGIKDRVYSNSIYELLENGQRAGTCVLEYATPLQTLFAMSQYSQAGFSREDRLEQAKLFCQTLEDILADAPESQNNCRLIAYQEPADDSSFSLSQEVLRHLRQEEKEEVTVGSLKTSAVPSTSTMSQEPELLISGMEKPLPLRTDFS

SMILES | EC50 [nM]
CC(C)(CO)C(=O)Nc1c[nH]c2ccc(-c3cnn(-c4ccc(C(F)(F)F)cc4)c3)cc12 [Compound 201, 3-hydroxy-2,2-dimethyl-N-(5-(1-(4-(trifluoromethyl)phenyl)-1H-pyrazol-4-yl)-1H-indol-3-yl)propanamide] | 1000 to 5000
CCC(=O)Nc1c[nH]c2ccc(-c3cnn(-c4ccc(OCC(F)(F)F)cc4)c3)cc12 [Compound 110, N-(5-(1-(4-(2,2,2-trifluoroethoxy)phenyl)-1H-pyrazol-4-yl)-1H-indol-3-yl)propionamide] | 40 to 200
CCC(=O)Nc1c[nH]c2ccc(-c3cnn(-c4cccc(CC)c4)c3)cc12 [Compound 128, N-(5-(1-(3-ethylphenyl)-1H-pyrazol-4-yl)-1H-indol-3-yl)propionamide] | 200 to 1000
O=C(Nc1c[nH]c2ccc(-c3cnn(-c4ccc(C(F)(F)F)cc4)c3)cc12)c1ccn[nH]1 [Compound 265, N-(5-(1-(4-(trifluoromethyl)phenyl)-1H-pyrazol-4-yl)-1H-indol-3-yl)-1H-pyrazole-5-carboxamide] | 200 to 1000
O=C1CCC(C(=O)Nc2c[nH]c3ccc(-c4cnn(-c5ccc(C(F)(F)F)cc5)c4)cc23)=NN1 [Compound 234, 6-oxo-N-(5-(1-(4-(trifluoromethyl)phenyl)-1H-pyrazol-4-yl)-1H-indol-3-yl)-1,4,5,6-tetrahydropyridazine-3-carboxamide] | 1000 to 5000
CCc1ccc(-n2cc(-c3ccc4[nH]cc(NC(=O)CN(C)C)c4c3)cn2)cc1 [Compound 125, 2-(dimethylamino)-N-(5-(1-(4-ethylphenyl)-1H-pyrazol-4-yl)-1H-indol-3-yl)acetamide] | 5000 to 100000
CCC(=O)Nc1c[nH]c2ccc(C3=CCCCC3)cc12 [Compound 141, N-(5-(cyclohex-1-en-1-yl)-1H-indol-3-yl)propionamide] | 5000 to 100000
O=C(Nc1c[nH]c2ccc(-c3cnn(-c4ccc(C(F)(F)F)cc4)c3)cc12)c1ncc[nH]1 [Compound 260, N-(5-(1-(4-(trifluoromethyl)phenyl)-1H-pyrazol-4-yl)-1H-indol-3-yl)-1H-imidazole-2-carboxamide] | 5000 to 100000
O=C1NCCC1C(=O)Nc1c[nH]c2ccc(-c3cnn(-c4ccc(C(F)(F)F)cc4)c3)cc12 (centres unmarked) [Compound 210, 2-oxo-N-(5-(1-(4-(trifluoromethyl)phenyl)-1H-pyrazol-4-yl)-1H-indol-3-yl)pyrrolidine-3-carboxamide] | 5000 to 100000
CC(=O)NC(C(=O)Nc1c[nH]c2ccc(-c3cnn(-c4ccc(C(F)(F)F)cc4)c3)cc12)C(C)C (centres unmarked) [Compound 218, 2-acetamido-3-methyl-N-(5-(1-(4-(trifluoromethyl)phenyl)-1H-pyrazol-4-yl)-1H-indol-3-yl)butanamide] | 1000 to 5000
N#Cc1cc(C(=O)Nc2c[nH]c3ccc(-c4cnn(-c5ccc(C(F)(F)F)cc5)c4)cc23)n[nH]1 [Compound 264, 5-cyano-N-(5-(1-(4-(trifluoromethyl)phenyl)-1H-pyrazol-4-yl)-1H-indol-3-yl)-1H-pyrazole-3-carboxamide] | 1000 to 5000
CN1C(=O)CC[C@H]1C(=O)Nc1c[nH]c2ccc(-c3cnn(-c4ccc(C(F)(F)F)cc4)c3)cc12 [Compound 209, (S)-1-methyl-5-oxo-N-(5-(1-(4-(trifluoromethyl)phenyl)-1H-pyrazol-4-yl)-1H-indol-3-yl)pyrrolidine-2-carboxamide] | 5000 to 100000
CC(=O)N1CC(C(=O)Nc2c[nH]c3ccc(-c4cnn(-c5ccc(C(F)(F)F)cc5)c4)cc23)C1 [Compound 223, 1-acetyl-N-(5-(1-(4-(trifluoromethyl)phenyl)-1H-pyrazol-4-yl)-1H-indol-3-yl)azetidine-3-carboxamide] | 1000 to 5000
CCc1ccc(-n2cc(-c3ccc4[nH]cc(NC(=O)/C=C/COC)c4c3)cn2)cc1 [Compound 130, (E)-N-(5-(1-(4-ethylphenyl)-1H-pyrazol-4-yl)-1H-indol-3-yl)-4-methoxybut-2-enamide] | 200 to 1000
CC1=NOC(C)(C(=O)Nc2c[nH]c3ccc(-c4cnn(-c5ccc(C(F)(F)F)cc5)c4)cc23)C1 (centres unmarked) [Compound 230, 3,5-dimethyl-N-(5-(1-(4-(trifluoromethyl)phenyl)-1H-pyrazol-4-yl)-1H-indol-3-yl)-4,5-dihydroisoxazole-5-carboxamide] | 5000 to 100000
CCC(=O)Nc1c[nH]c2ccc(-c3ccn(-c4ccc(C(F)(F)F)cc4)n3)cc12 [Compound 117, N-(5-(1-(4-(trifluoromethyl)phenyl)-1H-pyrazol-3-yl)-1H-indol-3-yl)propionamide] | 1000 to 5000
O=C(Nc1c[nH]c2ccc(-c3cnn(Cc4ccc(C(F)(F)F)nc4)c3)cc12)C1CCC1 [Compound 191, N-(5-(1-((6-(trifluoromethyl)pyridin-3-yl)methyl)-1H-pyrazol-4-yl)-1H-indol-3-yl)cyclobutanecarboxamide] | 200 to 1000
CCc1ccc(-n2cc(-c3ccc4[nH]cc(NC(=O)COC)c4c3)cn2)cc1 [Compound 106, N-(5-(1-(4-ethylphenyl)-1H-pyrazol-4-yl)-1H-indol-3-yl)-2-methoxyacetamide] | 40 to 200
CCC(=O)Nc1c[nH]c2ccc(-c3cnn(-c4ccc(CC(F)(F)F)cc4)c3)cc12 [Compound 102, N-(5-(1-(4-(2,2,2-trifluoroethyl)phenyl)-1H-pyrazol-4-yl)-1H-indol-3-yl)propionamide] | 200 to 1000
CC(C)n1cc(C(=O)Nc2c[nH]c3ccc(-c4cnn(-c5ccc(C(F)(F)F)cc5)c4)cc23)nn1 [Compound 283, 1-isopropyl-N-(5-(1-(4-(trifluoromethyl)phenyl)-1H-pyrazol-4-yl)-1H-indol-3-yl)-1H-1,2,3-triazole-4-carboxamide] | 200 to 1000
O=C(Nc1c[nH]c2ncc(-c3cnn(-c4ccc(C(F)(F)F)cc4)c3)cc12)C1CCC1 [Compound 251, N-(5-(1-(4-(trifluoromethyl)phenyl)-1H-pyrazol-4-yl)-1H-pyrrolo[2,3-b]pyridin-3-yl)cyclobutanecarboxamide] | 5000 to 100000
CN1CC(C(=O)Nc2c[nH]c3ccc(-c4cnn(-c5ccc(C(F)(F)F)cc5)c4)cc23)CC1=O (centres unmarked) [Compound 249, 1-methyl-5-oxo-N-(5-(1-(4-(trifluoromethyl)phenyl)-1H-pyrazol-4-yl)-1H-indol-3-yl)pyrrolidine-3-carboxamide] | 1000 to 5000
O=C(Nc1c[nH]c2ccc(-c3cnn(-c4ccc(C(F)(F)F)cc4)c3)cc12)c1nccs1 [Compound 273, N-(5-(1-(4-(trifluoromethyl)phenyl)-1H-pyrazol-4-yl)-1H-indol-3-yl)thiazole-2-carboxamide] | 1000 to 5000
O=C(Nc1c[nH]c2cnc(-c3cnn(-c4ccc(C(F)(F)F)cc4)c3)cc12)C1CCC1 [Compound 255, N-(5-(1-(4-(trifluoromethyl)phenyl)-1H-pyrazol-4-yl)-1H-pyrrolo[2,3-c]pyridin-3-yl)cyclobutanecarboxamide] | 5000 to 100000
CCC(=O)Nc1c[nH]c2ccc(-c3cnn(-c4ccc(C(F)(F)F)cc4)c3)cc12 [Compound 139, N-(5-(1-(4-(trifluoromethyl)phenyl)-1H-pyrazol-4-yl)-1H-indol-3-yl)propionamide] | 200 to 1000
CCC(=O)Nc1c[nH]c2ccc(N3CCN(c4ccccc4)CC3)cc12 [Compound 131, N-(5-(4-phenylpiperazin-1-yl)-1H-indol-3-yl)propionamide] | 5000 to 100000
